How the values were obtained:
Format in all cases: cell-based
authentic HPV16 virions = assay: Authentic HPV16 virion infection of HaCaT cells, RT-qPCR of spliced E1^E4 mRNA; settings: 0.5 μM, 100 vge/cell, three days post-infection
Experimental: FIG. 10. PolyR inhibits activity of authentic HPV16 virions. HaCaT cells were infected with authentic HPV16 virions (100 vge/cell) in the presence or absence of 500 nM polyR. At three days post-infection, total RNA was extracted from cells using TRIzol reagent (Invitrogen, Thermo Fisher Scientific, Inc., Carlsbad, Calif.). Equal amount of the RNA of polyR-treated and untreated cells was subjected to reverse transcription. Each RT reaction was divided into three qPCR amplifications of 45 cycles targeting the spliced transcripts of cellular β-actin or HPV16 cDNAs. Primers E7.4A and E4B target an amplimer derived from spliced E1^E4 RNA, as previously described (Patterson et al., 2005. J Virol 79:6838-6847).
To validate the effect of polyR was not simply related to pseudovirus infections, HaCaT cells were infected with authentic HPV16 virions carrying viral genomes (100 vge/cell) in the presence or absence of 0.5 μM polyR. At three days post-infection, the cells were harvested and total RNA was extracted using TRIzol reagent (Invitrogen, Thermo Fisher Scientific, Inc., Carlsbad, Calif.). Nucleic acid concentrations were determined by optical density measurements. […] Quantification of cDNA derived from the spliced viral E1^E4 mRNA via qPCR was analyzed in triplicate samples from multiple separate experimental infections.

[1] = test system: HPV16 pseudovirions (PsVs); assay: HPV16 PsV luciferase infectivity assay, HaCaT cells pretreated with peptide; settings: 24 h
Experimental: HaCaT cells were cultured in complete growing medium (CM; Dulbecco's modified Eagle's medium nutrient mixture F-12 HAM (Sigma-Aldrich, St. Louis, Mo.)) supplemented with 10% fetal bovine serum (FBS), amino acids (Sigma-Aldrich, St. Louis, Mo.), 2 mM L-glutamine, 100 U/ml penicillin and 1 μg/ml streptomycin (Sigma-Aldrich, St. Louis, Mo.), as previously described (Patterson et al., 2005. J Virol 79:6838-6847). Semi-confluent cells were pretreated for 30 minutes with arginine-rich peptides dissolved in CM (6 μM gp91dstat, gp91dstat (scramble), R9, and TAT, or 3 polyR) before the exposure to HaCaT cells and 300 vge/cell HPV16 pseudovirions (PsVs) packaging a luciferase reporter plasmid. Infectivity was scored after 24 hours of incubation at 37° C. (i.e., post infection) by Lumat LB9501 (Berthold Technologies GmbH & Co KG, Bad Wildbad, Germany) equipment, using the luciferase assay kit (Promega, Madison, Wis.) according to manufacturer's specification. Raw data were normalized to total cellular protein concentration. Graph summarizes triplicate treatments; error bars represent SEM.
Fifty percent inhibitory concentration (IC50) of HPV16 PsV infection of HaCaT cells by the compounds. For generation of an inhibitory concentration 50 (IC50) curves, cells were pretreated with the indicated concentration of arginine-rich peptides prior to HPV16 PsV exposure. Infectivity was scored after 24 hours of incubation at 37° C. and the data from two independent duplicate experiments were pooled and analyzed using non-linear regression (curve fit) function of PRISM software (GraphPad Software, Inc., LaJolla, Calif.).
Semi-confluent HaCaT cells maintained in CM, were pretreated for one hour with PrS dissolved in CM at the 0-5.8 μM concentrations before exposure to HPV16 PsVs (350 vge/cell). Infectivity was scored after 24 hours of incubation at 37° C. using a luminometer (Lumat LB9501, Berthold GmbH & Co., Bad Wildbad, Germany) and luciferase assay (Promega, Madison, Wis.) according to manufacturer's specification. Raw data were normalized to total cellular protein concentration.
For generation of an inhibitory concentration 50 (IC50) curve for PrS inhibition, data from two independent duplicate experiments was pooled and analyzed using the non-linear regression (curve fit) function of PRISM (GraphPad Software, Inc., La Jolla, Calif.).
3 μM PrS incubated for one hour at room temperature with 2 mg/ml high or low molecular weight HA in CM, prior to the addition to HaCaT cells. 350 vge/cell HPV16 PsVs were used for infection of cells in the presence or absence of PrS or HA:PrS complex. Infection was scored after 24 hours as described in FIG. 12.
HaCaT cells were pretreated with 6 μM concentrations of gp91dstat, gp91dstat (scramble), R9, or TAT, or 3 μM polyR. After 30 minutes of incubation at 37° C., cells were infected with HPV16 pseudovirions (PsVs) at a dose of 300 viral genome equivalents (vge)/cell, and the relative infectivity was quantified after 24 hours compared to infection in untreated cells (FIG. 1). Each treatment was performed in triplicate.
To evaluate the anti-HPV activity of PrS, HaCaT cells, a keratinocyte-derived cell line, was used as a model for analysis of HPV infection. […]
Infections were initiated using Luciferase-expressing HPV16 PsVs that were produced, isolated, and quantified as described previously (Surviladze et al., 2012. PLoS Pathogens 8: e1002519; Campos S K and Ozbun M A, 2009. PloS One 4:e4463). […]

HPV16 PsVs = assay: Direct pre-incubation of HPV16 PsVs with peptide, dilution below IC50, then infection of HaCaT cells; settings: 0.3 μM, 1 h 37° C., diluted 1500-fold, HaCaT cells 24 h
Experimental: FIG. 3. […] HPV16 PsVs were incubated with 0.3 μM polyR for one hour at 37° C. The virus-polyR mixture was diluted with CM to reduce the polyR concentration below the IC50 value prior to incubation with HaCaT cells for 24 hours (HPV16-polyR). The control included untreated HPV16 PsVs (HPV16) added to HaCaT cells. Infection was measured after 24-hour incubation.
FIG. 15. Direct interaction of PrS to HPV16 PsVs. HPV16 PsVs were incubated with 1 μM PrS or HA:PrS complex for one hour at 37° C. Virus-PrS/or HA:PrS mixture was diluted with CM in order to reduce the PrS concentration below the IC50 value, and incubated with HaCaT cells for 24 hours. The control included untreated HPV16 PsVs. Infection was measured after 24 hours incubation as described in FIG. 12.
Typically, direct interaction of cationic inhibitors with the viral capsids of non-enveloped viruses (including HPV) is sufficient for antiviral activity. To determine whether polyR inhibited HPV16 infectivity by direct interaction with viral capsids, HPV16 PsVs were incubated with […] for one hour at 37° C. The virus-polyR mixture was diluted 1500-fold to reduce the polyR concentration below the IC50 value, then incubated with HaCaT cells. The control included cells exposed to HPV PsVs that were not treated with polyR. […]

poly-L-arginine [polyR]
inhibition of HPV16 infection (RT-qPCR) (authentic HPV16 virions): ~90%
inhibition of HPV16 PsV infection ([1]; 3 μM, 30 min pretreatment of HaCaT cells, 300 vge/cell): > 98%
IC50 ([1]; pretreatment before PsV exposure, two independent duplicate experiments, read-out: IC50 of HPV16 PsV infection of HaCaT cells): 19 nM
effect of pre-incubation of HPV16 PsVs on infection (HPV16 PsVs): did not inhibit infection to a statistically significant degree
